{"source": "patent US9580459B2", "about": "“Water-soluble ursodeoxycholic acid prodrugs” (Metselex, Inc., priority 2013, dated 2017)", "key": {"[1]": {"system": "primary rat hepatocytes", "assay": "TGFβ1-induced cytotoxicity (LDH release)", "assay_type": "cell-based", "conditions": "100 μM, 12 hours, then 1 nmol/L TGF-β1 24 hours; alkaline phosphatase added for compound 19d; p<0.05", "description": "To compare the in vitro cytoprotective effects of the new prodrugs with UDCA, an alcohol-linked phosphate prodrug (the 3-substituted prodrug compound 3) and the POMC prodrug compound 19d were evaluated for their ability to modulate TGFβ1-induced cytotoxicity. […] Therefore, AP was added to the culture medium whenever assessing the cytoprotective potential of compound 19d. The ability of compound 3 and compound 19d to inhibit TGFβ1-induced general cell death, as compared with UDCA were analyzed. […] Results are expressed as means±SEM of at least three different experiments (*p<0.01 from respective control; §p<0.05 from respective TGFβ). […] Similarly as before, UDCA, compound 3 and compound 19d, inhibited TGFβ1-induced cytotoxicity by about 40, 30 and 60%, respectively (p<0.05).\nIn another example, primary rat hepatocytes were isolated from male rats (100-150 g) by collagenase perfusion. Briefly, rats were anesthetized with phenobarbital sodium (100 mg/kg body weight) injected into the peritoneal cavity. […] Cell viability was determined by trypan blue exclusion and was typically 80-85%. […]\nIn another example, LDH, a stable cytosolic enzyme, is released to cell culture media following cell lysis, and can be used as a marker of cytotoxicity. […] Finally, absorbance was measured at 490 nm, with 690 nm as reference, using a Bio-Rad model 680-microplate reader (Bio-Rad Laboratories, Hercules, Calif.)."}, "[2]": {"system": "primary rat hepatocytes", "assay": "TGFβ1-induced loss of cellular viability (CellTiter-Fluor viability assay)", "assay_type": "cell-based", "conditions": "presence or absence of 3 U/ml alkaline phosphatase; preliminary results"}, "[3]": {"assay": "stability in Tris glycine buffer without enzyme (31P NMR)", "assay_type": "physicochemical", "conditions": "0.100 M Tris glycine buffer with 1.0 mM ZnCl2 and 1.0 mM MgCl2, 1 h, no enzyme", "description": "Compound 19d (10.0 mg, 0.016 mmol) or compound 3 (8.7 mg, 0.016 mmol) was dissolved in 0.6 mL of a 0.100 M Tris glycine buffer solution containing 1.0 mM ZnCl2 and 1.0 mM MgCl2. […] 50 μL of the previously prepared AP stock solution was further diluted by addition to 0.950 mL of a 0.100 M Tris glycine buffer containing 1.0 mM ZnCl2 and 1.0 mM MgCl2. […] A series of 42 inverse-gated decoupled ^31P NMR's were taken (24 scans each, approximately one minute acquisition time). Conversion (%) was determined from the relative integration of the starting material and product peaks, NMR time stamps were used to determine time. Each experiment was repeated three times."}, "[4]": {"assay": "aqueous solubility of the prodrugs", "assay_type": "physicochemical", "description": "To obtain the 7-substituted phosphate ester prodrug of UDCA, benzyl ester 1 was treated with benzyl chloroformate and pyridine in dichloromethane as shown in FIG. 2. This led to a mixture of products, including 3-Cbz-protected alcohol (41%) (compound 4), 7-Cbz-protected alcohol (10%) (compound 5), and recovered starting material (41%). These products were readily separated by column chromatography, which allowed definitive confirmation of the regiochemistry of the prodrugs by ^1H NMR analysis, as the signal of the proton next to the Cbz-protected alcohol (Ha in FIG. 2) was a dddd in the major mono-substituted product (consistent with compound 4) and a ddd in the minor mono-substituted product (consistent with compound 5). Compound 4 was then converted into a 7-substituted phosphate ester prodrug (compound 7) using dibenzyl N,N-diethylphosphoramidite followed by oxidation with H2O2 and then Pd/C catalyzed debenzylation. Similar standard conditions converted compound 5 into the same 3-substituted phosphate ester prodrug (compound 3) that was obtained in FIG. 1. Both phosphate prodrugs (compound 3 and compound 7) were highly aqueously soluble, rapidly dissolving at all concentrations tested (up to 20 mg/mL), and were stable in solution for extended periods of time (>6 months) without any apparent decomposition. […]"}, "[5]": {"biological_target": "T1, alkaline phosphatase from bovine intestinal mucosa (Bos taurus, UniProt P19111)", "T1 construct": "alkaline phosphatase from bovine intestinal mucosa; purchased Sigma-Aldrich P5521-2KU; host or cells: bovine intestinal mucosa (tissue-derived)", "T1 sequence (P19111 20-506 limits assumed)": "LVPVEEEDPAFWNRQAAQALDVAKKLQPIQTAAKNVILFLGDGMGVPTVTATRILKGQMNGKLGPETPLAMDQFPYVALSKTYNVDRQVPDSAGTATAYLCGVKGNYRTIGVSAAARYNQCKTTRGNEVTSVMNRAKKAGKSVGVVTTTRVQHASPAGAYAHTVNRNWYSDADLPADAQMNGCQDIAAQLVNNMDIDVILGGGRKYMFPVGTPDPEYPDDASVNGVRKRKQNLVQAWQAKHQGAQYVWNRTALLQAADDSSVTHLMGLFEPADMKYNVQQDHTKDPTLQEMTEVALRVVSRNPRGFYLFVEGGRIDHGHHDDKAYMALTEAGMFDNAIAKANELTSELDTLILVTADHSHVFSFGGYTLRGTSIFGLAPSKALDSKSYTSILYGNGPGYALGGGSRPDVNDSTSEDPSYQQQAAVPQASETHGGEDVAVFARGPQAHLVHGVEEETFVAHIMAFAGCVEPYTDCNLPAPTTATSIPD", "assay": "alkaline phosphatase catalyzed activation monitored by inverse-gated decoupled 31P NMR", "assay_type": "biochemical", "conditions": "in vitro, Tris glycine buffer", "description": "To determine whether the POMC prodrug was indeed activated under in vitro conditions faster than a prodrug where the phosphate moiety is directly linked to an alcohol, a series of experiments were conducted monitoring the alkaline phosphatase catalyzed activation of the prodrugs compound 19d and compound 3 by inverse-gated decoupled ^31P NMR. […] Each data point represents the mean of three separate experiments±standard error of the mean (SEM).\nIn another example, alkaline phosphatase from bovine intestinal mucosa (P5521-2KU, Sigma-Aldrich, St. Louis, Mo.) was dissolved in 2.0 mL of a 0.100 M […] glycine buffer containing 1.0 mM ZnCl2 and 1.0 mM MgCl2. This stock solution was stored at 4° C. between uses.\nCompound 19d (10.0 mg, 0.016 mmol) or compound 3 (8.7 mg, 0.016 mmol) was dissolved in 0.6 mL of a 0.100 M Tris glycine buffer solution containing 1.0 mM ZnCl2 and 1.0 mM MgCl2. […] 50 μL of the previously prepared AP stock solution was further diluted by addition to 0.950 mL of a 0.100 M Tris glycine buffer containing 1.0 mM ZnCl2 and 1.0 mM MgCl2. 10.0 μL of this diluted AP solution was added to the prodrug solution by syringe. […] Conversion (%) was determined from the relative integration of the starting material and product peaks, NMR time stamps were used to determine time. […]"}}, "data": [{"smiles": "C[C@H](CCC(=O)O)[C@H]1CC[C@H]2[C@@H]3[C@@H](O)C[C@@H]4C[C@H](O)CC[C@]4(C)[C@H]3CC[C@]12C", "note": "[UDCA, Ursodeoxycholic acid]", "values": [{"measurement": "inhibition of TGFβ1-induced cytotoxicity (LDH release)", "setting": "[1]", "result": "about 40%"}]}, {"smiles": "C[C@H](CCC(=O)O)[C@H]1CC[C@H]2[C@@H]3[C@@H](O)C[C@@H]4C[C@H](OP(=O)([O-])[O-])CC[C@]4(C)[C@H]3CC[C@]12C.[Na+].[Na+]", "note": "[compound 3, 3-(Phosphonatooxy)-ursodeoxycholic acid sodium salt]", "values": [{"measurement": "effect of alkaline phosphatase (AP) in the culture medium on cytoprotective properties", "setting": "[2]", "result": "does not significantly change"}, {"measurement": "inhibition of TGFβ1-induced cytotoxicity (LDH release)", "setting": "[1]", "result": "~30", "unit": "%"}, {"measurement": "decomposition by 31P NMR in buffer", "setting": "[3]", "result": "Neither compound showed decomposition"}]}, {"smiles": "C[C@H](CCC(=O)O)[C@H]1CC[C@H]2[C@@H]3[C@@H](OP(=O)([O-])[O-])C[C@@H]4C[C@H](O)CC[C@]4(C)[C@H]3CC[C@]12C.[Na+].[Na+]", "note": "[compound 7, 7-(Phosphonatooxy)-ursodeoxycholic acid sodium salt]", "values": [{"measurement": "aqueous solubility", "setting": "[4]", "result": "≥ 20", "unit": "mg/mL"}]}, {"smiles": "CC(CCC(=O)OCOP(=O)(O)O)C1CCC2C3C(O)CC4CC(O)CCC4(C)C3CCC12C", "note": "(stereo not shown) [compound 19, ursodeoxycholic acid phosphonooxymethoxy ester]", "values": [{"measurement": "rate of release of UDCA by alkaline phosphatase (compared with compound 3)", "setting": "[5]", "result": "faster"}, {"measurement": "effect of alkaline phosphatase (AP) in the culture medium on cytoprotective properties", "setting": "[2]", "result": "required activation by exogenous alkaline phosphatase"}]}]}
